Results as given in publication PMC3914206.

How the values were obtained:
Type in all cases: binding
panel of 442 kinases [1] = biological target: T1, panel of 442 kinases (Homo sapiens, UniProt P28482); details: Compound Concentration 10 µM
T1 construct: purchased KINOMEscan
Text: (§1) We assessed the selectivity of members of this scaffold using the KINOMEscan methodology across a near comprehensive panel of 442 kinases [[18,27]].

panel of 442 kinases [2] = biological target: T2, panel of 442 kinases (Homo sapiens, UniProt Q8N752); details: Compound Concentration 10 µM
T2 construct: purchased KINOMEscan
T2 sequence (Q8N752 1-337): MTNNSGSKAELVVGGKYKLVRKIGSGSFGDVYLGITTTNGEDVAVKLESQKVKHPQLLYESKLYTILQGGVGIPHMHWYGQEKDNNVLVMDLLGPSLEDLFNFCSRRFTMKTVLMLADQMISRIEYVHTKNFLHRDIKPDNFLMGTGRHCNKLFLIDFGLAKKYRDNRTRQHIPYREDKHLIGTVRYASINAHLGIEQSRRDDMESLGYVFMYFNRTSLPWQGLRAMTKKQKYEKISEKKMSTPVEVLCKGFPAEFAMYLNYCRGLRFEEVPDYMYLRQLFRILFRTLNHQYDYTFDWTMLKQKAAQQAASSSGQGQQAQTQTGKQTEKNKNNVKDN
Text: as §1

panel of 442 kinases [3] = biological target: T3, panel of 442 kinases (Homo sapiens, UniProt Q16288); details: kinase TRKC; compound concentration 10 µM
T3 construct: purchased KINOMEscan
Text: as §1

T1 sequence (P28482 whole entry): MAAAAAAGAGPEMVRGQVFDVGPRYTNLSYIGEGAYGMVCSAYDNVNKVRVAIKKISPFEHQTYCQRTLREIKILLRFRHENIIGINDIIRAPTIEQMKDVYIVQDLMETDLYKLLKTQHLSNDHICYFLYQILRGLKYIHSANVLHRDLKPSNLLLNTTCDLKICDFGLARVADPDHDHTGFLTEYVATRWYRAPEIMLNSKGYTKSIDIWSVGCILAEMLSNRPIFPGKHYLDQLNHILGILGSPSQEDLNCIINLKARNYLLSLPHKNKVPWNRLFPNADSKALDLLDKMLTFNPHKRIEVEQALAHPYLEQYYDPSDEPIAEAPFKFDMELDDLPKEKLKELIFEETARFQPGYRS
T3 sequence (Q16288 32-839): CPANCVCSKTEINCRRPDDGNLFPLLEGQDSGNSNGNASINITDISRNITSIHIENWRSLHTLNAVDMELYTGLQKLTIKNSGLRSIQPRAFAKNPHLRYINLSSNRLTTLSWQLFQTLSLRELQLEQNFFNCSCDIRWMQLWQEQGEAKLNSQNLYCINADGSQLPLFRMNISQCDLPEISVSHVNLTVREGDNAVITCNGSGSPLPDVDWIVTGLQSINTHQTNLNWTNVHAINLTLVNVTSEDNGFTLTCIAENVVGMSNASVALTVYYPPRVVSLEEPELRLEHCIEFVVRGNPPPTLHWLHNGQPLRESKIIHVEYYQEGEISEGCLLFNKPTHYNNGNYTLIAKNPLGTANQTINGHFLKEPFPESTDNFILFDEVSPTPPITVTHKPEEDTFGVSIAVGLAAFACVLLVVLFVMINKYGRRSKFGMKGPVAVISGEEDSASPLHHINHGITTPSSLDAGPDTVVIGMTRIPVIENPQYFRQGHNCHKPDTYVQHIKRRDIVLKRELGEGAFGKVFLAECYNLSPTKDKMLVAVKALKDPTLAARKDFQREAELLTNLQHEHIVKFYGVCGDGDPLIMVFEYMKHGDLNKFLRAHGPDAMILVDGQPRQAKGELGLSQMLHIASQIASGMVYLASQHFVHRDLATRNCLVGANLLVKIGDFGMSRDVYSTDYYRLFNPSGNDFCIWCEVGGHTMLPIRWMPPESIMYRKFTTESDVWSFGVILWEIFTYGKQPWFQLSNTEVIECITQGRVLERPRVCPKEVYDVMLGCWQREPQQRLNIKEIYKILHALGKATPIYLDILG

Row | Compound | KINOMEscan: ERK2 (panel of 442 kinases [1]) | KINOMEscan: CSNK1A1L (panel of 442 kinases [2]) | % Ctrl, TRKC (panel of 442 kinases [3])
1 | COc1cc(C(=O)N2CCC(N3CCN(C)CC3)CC2)ccc1Nc1ncc2c(n1)N(C1CCCC1)c1ccccc1C(=O)N2C [Compound 25, 11-cyclopentyl-2-((2-methoxy-4-(4-(4-methylpiperazin-1-yl)piperidine-1-carbonyl)phenyl)amino)-5-methyl-5H-benzo[e]pyrimido[5,4-b][1,4]diazepin-6(11H)-one] | 98 | 100 | 100 % Ctrl
2 | COc1cc(C(=O)N2CCC(N3CCN(C)CC3)CC2)ccc1Nc1ncc2c(n1)N1CCc3cccc(c31)C(=O)N2C [Compound 24] | 88 | – | 100 % Ctrl
3 | COc1cc(C(=O)N2CCC(N3CCN(C)CC3)CC2)ccc1Nc1ncc2c(n1)N(C)c1ccccc1C(=O)N2C [15 (LRRK2-IN-1)] | 85 | 100 | 100 % Ctrl
4 | CCOc1cc(C(=O)N2CCC(N3CCN(C)CC3)CC2)ccc1Nc1ncc2c(n1)N(C1CCCC1)c1ccccc1C(=O)N2C [Compound 26] | 100 | 99 | 90 % Ctrl
